How the values were obtained:
[1] = molecular target: T1, recombinant HIV-1 reverse transcriptase (RTHXB2) (Human immunodeficiency virus type 1 group M subtype B, UniProt P04585); assay: Reverse transcriptase inhibition activity (RDDP, [3H]dTTP incorporation); assay type: biochemical; conditions: 50% inhibitory concentration, mean of three independent experiments; read-out: CI50 (the source's name)
T1 construct: The enzyme is derived from a polyprotein encoded by the virus, processed by the viral protease
Experimental: Reverse Transcriptase Inhibition Activity
The RDDP activity was determined in 50 mM Tris HCl (pH 7.8), 6 mM MgCl2, 1 mM dithiothreitol, 50 mM KCl, 5 μM dTTP, […] poly (rA) oligo (dT) template primer (Pharmacia, Piscataway, N.J., USA) and 3 U of enzyme (one unit is the enzyme concentration incorporating dTTP […] per minute per mg of enzyme at 37° C. under standard conditions). The reaction isotope dilutions were prepared at 2 μCi of [3H] dTTP (49 Ci/mmol)/2,7μ dTTP. The reaction was initiated at 37° C., incubated for 30 minutes and halted with 0.5M EDTA. The precipitate was collected on Whatman 81 filter paper and washed with 0.1 M sodium phosphate. The incorporated nucleotides were measured by liquid scintillation. The 50% inhibitory concentration (Ciso) was determined by linear regression analysis of the dose-response curve obtained from experimental data. The polymerization reaction was conducted in the presence and absence of test substances, as well as the presence and absence of standards.
All tests were conducted on three separate occasions. At least three independent experiments were performed and triplicates were run for each concentration.

[2] = tested on: Suptl cells (T-lymphocyte cell line); assay: Cytotoxicity assay (MTT); assay type: cell-based; conditions: 50% cytotoxic concentration, 72 hours, MTT; read-out: CC50
Experimental: The T-lymphocyte cell line (Suptl) was cultured in an RPMI 1640 medium (GIBICO). The cultures were supplemented with 10% Fetal Bovine Serum (SFB; HyClone, Logan, Utah, USA), 100 U/mL of penicillin and […] of streptomycin, and incubated at 37° C., in an atmosphere of 5% CO2. Virus stocks were prepared using the methodology described by Souza and Denizot (SOUZA, T. M. L; RODRIGUES, D. Q.; […], V. F.; MARQUES, I. P.; DE SOUZA, M. C. B. V.; […], I. C. P. P.; BOU-HABIB, D. C; FONTES, C. F. L. Characterization of HIV-1 enzyme reverse transcriptase inhibition by the compound 6-chloro-1.4-dihydro-4-oxo-1-(β-D-ribofuranosyl) quinoline-3-carboxylic acid through kinetic and in silico studies. Current HIV Research, v. 7, No 3, page 327-335, 2009. DENIZOT, F.; LANG, R. Rapid colorimetric assay for cell growth and survival. Modifications to the tetrazolium dye procedure giving improved sensitivity and reliability. The Journal of Immunological Methods, v. 89, No 2, page 271-277, 1986).
. They were then run through an MTT assay (3-(4,5-dimethylazol-2-yl)-2.5-diphenyl tetrazolium bromide) in order to analyze cell induction infeasibility. MTT is a colorimetric method that measures mitochondrial dehydrogenase activity based on the ability of live cells to reduce 3-(4,5-methylazol-2-yl)-2.5-diphenyl tetrazolium bromide salt in the product. A […] solution of 3-(4,5-dimethylthiazol-2-yl)-2.5-diphenyl tetrazolium bromide (1 mg/ml) (MTT, Sigma) was thus added to the cells, kept in Dulbecco's Modified Eagle's medium (DMEM) without serum. The MTT was removed after three hours and, after adding […] of isopropanol acid (0.04N HCl in isopropanol), the optical density (OD) was determined using a wavelength range of 570 to 690 nm, according to KUO et al (KUO, Y. C; CHEN, C. C; TSA, W. J.; HO, Y. H. Regulation of type 1 herpes simplex virus replication in vero cells by Psychotriaserpens: relationship to gene expression, DNA replication, and protein synthesis. Antiviral Research, v. 51, No 2, pages 95 to 109, 2001). The dye coloring has different optical densities, depending on mitochondrial metabolism after treating cells with different concentrations of the new derivatives or the absence thereof. The 50% cytotoxic concentration (CC50) was calculated through linear regression analysis from the dose-response curve obtained from experimental data.

Q: With `Cc1ccc2c(c1)C(F)(F)C(=O)N2Cc1cn(C2CC(n3cc(C)c(=O)[nH]c3=O)OC2CO)nn1` (centres unmarked) [IIIb, 1-(4-(4-((3,3-difluor-5-methyl-2-oxoindolin-1-yl)methyl)-1H-1,2,3-triazole-1-yl)-5-(hydroxymethyl)tetrahydrofuran-2-yl)-5-methylpyrimidine-2.4(1H,3H)-dione] as the compound, how does the IC50 [1] read?
A: Its IC50 is 3.2 µM.

Q: What about the CC50 [2] of the same compound?
A: The CC50 was over 100 µM.
